PMC11742793 (BMC Chemistry, 2025)

Target: P. falciparum lactate dehydrogenase (PfLDH) (Plasmodium falciparum, UniProt Q76NM3)
Experiment: microscale thermophoresis
Type: binding

Sequence of P. falciparum lactate dehydrogenase (PfLDH) (Q76NM3 1-316): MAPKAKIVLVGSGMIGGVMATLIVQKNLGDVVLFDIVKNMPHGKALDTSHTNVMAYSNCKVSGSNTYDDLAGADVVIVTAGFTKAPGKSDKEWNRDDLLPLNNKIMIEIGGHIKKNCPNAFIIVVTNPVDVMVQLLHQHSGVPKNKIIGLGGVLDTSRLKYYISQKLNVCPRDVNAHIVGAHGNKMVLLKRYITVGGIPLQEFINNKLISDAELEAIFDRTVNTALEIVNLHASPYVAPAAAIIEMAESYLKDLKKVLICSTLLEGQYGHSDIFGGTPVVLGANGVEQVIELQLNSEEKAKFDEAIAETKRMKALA

**Q.** With `C=C(C)[C@@H]1CC[C@]2(C(=O)O)CC[C@]3(C)[C@H](CC[C@@H]4[C@@]5(C)CC[C@H](O)C(C)(C)[C@@H]5CC[C@]43C)[C@@H]12` [BA, betulinic acid] as the compound, how does the Kd read?
**A.** Its Kd is 104 nM.
